Results: ChEMBL document CHEMBL6121040, “Synthesis and biological assessment of BUB1B inhibitors for the treatment of clear cell renal cell carcinoma” (Eur J Med Chem, 2025)
The source made the active and inactive calls. The rule behind the calls is not given here.

Assays:
CAKI-1 [1] = test: Cytotoxicity against human CAKI-1 cells assessed as cell viability at 10 uM incubated for 1 day by MTT assay relative to control; format: functional; details: CAKI-1, 24 h, read-out: Activity
CAKI-1 [2] = test: Cytotoxicity against human CAKI-1 cells assessed as reduction in cell viability incubated for 1 day by MTT assay; format: functional, cell-based; details: CAKI-1, 24 h
[3] = target: T1, Mitotic checkpoint serine/threonine-protein kinase BUB1 beta (Homo sapiens, UniProt O60566); test: Inhibition of recombinant BUB1B (unknown origin) incubated for 60 mins in presence of [gamma-33P]-ATP by microplate scintillation counter analysis
T1 sequence (O60566 whole entry): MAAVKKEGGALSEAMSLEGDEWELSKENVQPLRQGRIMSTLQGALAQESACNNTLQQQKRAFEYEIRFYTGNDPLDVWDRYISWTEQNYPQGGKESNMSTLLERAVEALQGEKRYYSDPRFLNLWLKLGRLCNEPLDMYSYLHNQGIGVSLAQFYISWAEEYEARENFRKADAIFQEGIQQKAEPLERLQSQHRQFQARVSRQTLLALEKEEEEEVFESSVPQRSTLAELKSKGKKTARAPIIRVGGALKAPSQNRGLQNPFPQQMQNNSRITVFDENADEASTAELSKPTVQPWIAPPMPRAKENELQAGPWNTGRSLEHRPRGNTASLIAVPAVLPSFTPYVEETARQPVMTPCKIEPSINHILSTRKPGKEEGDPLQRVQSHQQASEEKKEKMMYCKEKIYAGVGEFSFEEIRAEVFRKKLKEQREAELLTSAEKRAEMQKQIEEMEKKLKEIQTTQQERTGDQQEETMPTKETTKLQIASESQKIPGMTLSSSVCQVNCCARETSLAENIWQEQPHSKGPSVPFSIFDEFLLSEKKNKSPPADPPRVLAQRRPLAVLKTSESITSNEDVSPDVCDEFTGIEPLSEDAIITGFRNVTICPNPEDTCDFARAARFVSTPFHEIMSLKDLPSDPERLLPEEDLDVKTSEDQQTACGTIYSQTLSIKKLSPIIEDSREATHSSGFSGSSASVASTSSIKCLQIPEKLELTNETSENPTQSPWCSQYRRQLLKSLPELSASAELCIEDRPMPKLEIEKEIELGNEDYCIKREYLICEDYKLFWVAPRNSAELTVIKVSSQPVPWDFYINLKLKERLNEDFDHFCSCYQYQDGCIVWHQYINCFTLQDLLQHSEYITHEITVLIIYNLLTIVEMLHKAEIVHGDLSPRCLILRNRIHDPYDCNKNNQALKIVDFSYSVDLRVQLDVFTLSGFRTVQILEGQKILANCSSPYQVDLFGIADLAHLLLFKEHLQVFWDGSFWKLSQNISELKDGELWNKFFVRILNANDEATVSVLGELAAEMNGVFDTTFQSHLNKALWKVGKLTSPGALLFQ

CAKI-1 [4] = test: Cytotoxicity against human CAKI-1 cells assessed as cell viability at 10 uM incubated for 3 day by MTT assay relative to control; format: functional; details: CAKI-1, 72 h, read-out: Activity
CAKI-1 [5] = test: Cytotoxicity against human CAKI-1 cells assessed as reduction in cell viability at 10 uM by MTT assay; format: functional, cell-based; details: time 1-3 day
CAKI-1 [6] = test: Induction of apoptosis in human CAKI-1 cells assessed as increase in cleaved PARP level by measuring fold change at 10 uM incubated for 1 day by Western blot analysis (reference value: 1); format: functional
CAKI-1 [7] = test: Cytotoxicity against human CAKI-1 cells assessed as reduction in cell viability incubated for 3 days by MTT assay; format: functional, cell-based; details: for IC50: CAKI-1, 72 h; for Activity: time 3.0 day
CAKI-1 [8] = test: Cytotoxicity against human CAKI-1 cells assessed as necrotic cell death incubated for 3 days by LDH assay; format: functional, cell-based; details: CAKI-1, 72 h
CAKI-1 [9] = test: Induction of apoptosis in human CAKI-1 cells assessed as decrease in Bcl-2 protein level by measuring fold change at 10 uM incubated for 1 day by Western blot analysis (reference value: 1); format: functional
CAKI-1 [10] = test: Induction of apoptosis in human CAKI-1 cells assessed as decrease in Bcl-2 protein level by measuring fold change at IC50 concentration incubated for 1 day by Western blot analysis (reference value: 1); format: functional
CAKI-1 [11] = test: Induction of apoptosis in human CAKI-1 cells assessed as increase in cleaved caspase-8 protein level at 10 uM incubated for 1 day by Western blot analysis; format: functional, cell-based
CAKI-1 [12] = test: Induction of apoptosis in human CAKI-1 cells assessed as increase in cleaved caspase-3 protein level at 10 uM incubated for 1 day by Western blot analysis; format: functional, cell-based
CAKI-1 [13] = test: Induction of apoptosis in human CAKI-1 cells assessed as increase in cleaved caspase-9 protein level at 10 uM incubated for 1 day by Western blot analysis; format: functional, cell-based
CAKI-1 [14] = test: Induction of apoptosis in human CAKI-1 cells assessed as increase in cleaved PARP level by measuring fold change at IC50 concentration incubated for 1 day by Western blot analysis (reference value: 1); format: functional
[15] = Downregulation of BUB1B protein expression level in human CAKI-1 cells at 10 uM incubated for 1 day by Western blot analysis (Rvb =1); format: functional
[16] = Downregulation of BUB1B protein expression level in human CAKI-1 cells at IC50 concentration incubated for 1 day by Western blot analysis (Rvb =1); format: functional
[17] = target: T1, Mitotic checkpoint serine/threonine-protein kinase BUB1 beta; test: Destabilization of BUB1B in human CAKI-1 cells assessed as reduction in BUB1B protein level at 20 uM preincubated for 1 hrs followed by incubation under 45 degreeC for 3 mins by CETSA analysis (reference value: 1); format: cell-based; details: time 63.0 min
[18] = Cytotoxicity against human MRC5 cells assessed as cell viability at 5 uM incubated for 1 day relative to control; format: toxicity, cell-based; details: read-out: Activity
[19] = Cytotoxicity against human HaCaT cells assessed as cell viability at 5 uM incubated for 1 day relative to control; format: toxicity, cell-based; details: read-out: Activity
[20] = Cytotoxicity against human MRC5 cells assessed as cell viability at 1 uM incubated for 1 day relative to control; format: toxicity, cell-based; details: read-out: Activity
[21] = Cytotoxicity against human HaCaT cells assessed as cell viability at 1 uM incubated for 1 day relative to control; format: toxicity, cell-based; details: read-out: Activity

COc1cccc(Nc2ncc(C)c(Nc3cccc(S(=O)(=O)NC(C)(C)C)c3)n2)c1OC
viability at 10 µM (CAKI-1 [1]): 78%

Cc1cnc(Nc2cccc(S(=O)(=O)N3CCOCC3)c2)nc1Nc1cccc(S(=O)(=O)NC(C)(C)C)c1
viability at 10 µM (CAKI-1 [1]): 60.6%

Cc1cnc(Nc2ccc(N3CCN(C(=O)N4CCCC4)CC3)cc2)nc1Nc1cccc(S(=O)(=O)NC(C)(C)C)c1
viability at 10 µM (CAKI-1 [1]): 43.1%

C#CCN1CCN(c2ccc(Nc3ncc(C)c(Nc4cccc(S(=O)(=O)NC(C)(C)C)c4)n3)cc2)CC1
viability at 10 µM (CAKI-1 [1]): 41.2%

COc1ccc(Nc2ncc(C)c(Nc3cccc(S(=O)(=O)NC(C)(C)C)c3)n2)c(OC)c1
viability at 10 µM (CAKI-1 [1]): 66.5%

Cc1ccc(Nc2ncc(C)c(Nc3cccc(S(=O)(=O)NC(C)(C)C)c3)n2)cc1S(N)(=O)=O
viability at 10 µM (CAKI-1 [1]): 43.2%

Cc1cnc(Nc2cccc(S(=O)(=O)NC(C)(C)C)c2)nc1Nc1cccc(S(=O)(=O)NC(C)(C)C)c1
viability at 10 µM (CAKI-1 [1]): 64.7%

COc1cc(Nc2ncc(C)c(Nc3cccc(S(=O)(=O)NC(C)(C)C)c3)n2)cc(OC)c1
viability at 10 µM (CAKI-1 [1]): 46.5%
IC50 (CAKI-1 [2]): 2.79 µM

Cc1cnc(Nc2ccc(OCc3cccc(F)c3)c(Cl)c2)nc1Nc1cccc(S(=O)(=O)NC(C)(C)C)c1
viability at 10 µM (CAKI-1 [1]): 96.1%

Cc1cn(-c2cc(Nc3ncc(C)c(Nc4cccc(S(=O)(=O)NC(C)(C)C)c4)n3)cc(C(F)(F)F)c2)cn1
viability at 10 µM (CAKI-1 [1]): 49.6%

Cc1ccc(Nc2nc(Nc3ccc(N4CCN(C)CC4)cc3)ncc2C)cc1S(N)(=O)=O
viability at 10 µM (CAKI-1 [1]): 34.7%

Cc1cnc(Nc2ccccc2P(C)(C)=O)nc1Nc1cccc(S(=O)(=O)NC(C)(C)C)c1
viability at 10 µM (CAKI-1 [1]): 84.4%

Cc1cnc(Nc2ccc(N3CCN(C)CC3)cc2)nc1Nc1cccc(S(=O)(=O)NC(C)(C)C)c1C
viability at 10 µM (CAKI-1 [1]): 52.1%

COc1ccc(S(=O)(=O)N2CCN(c3ccc(Nc4ncc(C)c(Nc5cccc(S(=O)(=O)NC(C)(C)C)c5)n4)cc3)CC2)cc1OC
viability at 10 µM (CAKI-1 [1]): 73.8%

Cc1cnc(Nc2ccc(N3CCN(C(=O)N(C)c4ccccc4)CC3)cc2)nc1Nc1cccc(S(=O)(=O)NC(C)(C)C)c1
viability at 10 µM (CAKI-1 [1]): 44.5%

CNC(=O)N1CCN(c2ccc(Nc3ncc(C)c(Nc4cccc(S(=O)(=O)NC(C)(C)C)c4)n3)cc2)CC1
viability at 10 µM (CAKI-1 [1]): 40.6%

COc1cnccc1Nc1nc(-c2nn(Cc3c(F)cc(OCCO)cc3F)c3ccccc23)ncc1OC
IC50 [3]: > 100 µM
viability at 10 µM (CAKI-1 [1]): 57.8%
IC50 (CAKI-1 [2]): 24.4 µM
viability at 10 µM (CAKI-1 [4]): 49.7%
Activity (CAKI-1 [5]): Time-dependent-effect
fold change (FC) (CAKI-1 [6]): 1.23
IC50 (CAKI-1 [7]): 10.4 µM
Activity (CAKI-1 [7]): Dose-dependent-effect
EC50 (CAKI-1 [8]): 15.9 µM
fold change (FC) (CAKI-1 [9]): 1.03
fold change (FC) (CAKI-1 [10]): 0.62
Activity (CAKI-1 [11]): inactive
Activity (CAKI-1 [12]): inactive
Activity (CAKI-1 [13]): inactive
fold change (FC) (CAKI-1 [14]): 2.89
fold change (FC) [15]: 0.73
fold change (FC) [16]: 0.65
fold change (FC) [17]: 1.33

Cc1cnc(Nc2ccc(N3CCN(C(=O)N(C)C)CC3)cc2)nc1Nc1cccc(S(=O)(=O)NC(C)(C)C)c1
viability at 10 µM (CAKI-1 [1]): 36.2%

Cc1cnc(Nc2ccc(N3CCN(C(=O)Nc4ccccc4F)CC3)cc2)nc1Nc1cccc(S(=O)(=O)NC(C)(C)C)c1
viability at 10 µM (CAKI-1 [1]): 46.7%

C=CC(=O)N1CCN(c2ccc(Nc3ncc(C)c(Nc4cccc(S(=O)(=O)NC(C)(C)C)c4)n3)cc2)CC1
viability at 10 µM (CAKI-1 [1]): 44.6%

Cc1cc(NS(=O)(=O)c2ccc(Nc3ncc(C)c(Nc4cccc(S(=O)(=O)NC(C)(C)C)c4)n3)cc2)no1
viability at 10 µM (CAKI-1 [1]): 95.5%

COc1cc(Nc2ncc(C)c(Nc3cccc(S(=O)(=O)N4CCOCC4)c3)n2)cc(OC)c1OC
IC50 [3]: 9.67 µM
viability at 10 µM (CAKI-1 [1]): 35.8%
IC50 (CAKI-1 [2]): 1.83 µM
viability at 10 µM (CAKI-1 [4]): 38.5%
fold change (FC) (CAKI-1 [6]): 10.69
IC50 (CAKI-1 [7]): 2.9 µM
Activity (CAKI-1 [7]): Dose-dependent-effect
EC50 (CAKI-1 [8]): 41.2 µM
fold change (FC) (CAKI-1 [9]): 0.64
fold change (FC) (CAKI-1 [10]): 0.5
Activity (CAKI-1 [11]): Active
Activity (CAKI-1 [12]): Active
Activity (CAKI-1 [13]): Active
fold change (FC) (CAKI-1 [14]): 3.76
fold change (FC) [15]: 0.12
fold change (FC) [16]: 0.22
viability at 24 h, 5 µM [18]: 70.6%
viability at 24 h, 5 µM [19]: 75.3%
viability at 24 h, 1 µM [20]: 89.2%
viability at 24 h, 1 µM [21]: 105%
fold change (FC) [17]: 0.65

COc1ncnc(NS(=O)(=O)c2ccc(Nc3ncc(C)c(Nc4cccc(S(=O)(=O)NC(C)(C)C)c4)n3)cc2)c1OC
viability at 10 µM (CAKI-1 [1]): 104%

COc1ccccc1NC(=O)N1CCN(c2ccc(Nc3ncc(C)c(Nc4cccc(S(=O)(=O)NC(C)(C)C)c4)n3)cc2)CC1
viability at 10 µM (CAKI-1 [1]): 48.4%

COc1cc(Nc2ncc(C)c(Nc3cccc(S(=O)(=O)NC(C)(C)C)c3)n2)c(Cl)cc1Cl
viability at 10 µM (CAKI-1 [1]): 108%

COc1cc(Nc2ncc(C)c(Nc3cccc(S(=O)(=O)NC4CCC4)c3)n2)cc(OC)c1
viability at 10 µM (CAKI-1 [1]): 42%

COc1ccc(Nc2ncc(C)c(Nc3cccc(S(=O)(=O)NC(C)(C)C)c3)n2)cc1OC
viability at 10 µM (CAKI-1 [1]): 36.6%

COc1cc(Nc2ncc(C)c(Nc3cccc(S(=O)(=O)N4CCOCC4)c3)n2)cc(OC)c1
viability at 10 µM (CAKI-1 [1]): 45.4%

Cc1cnc(Nc2ccc(OCCCN3CCOCC3)cc2)nc1Nc1cccc(S(=O)(=O)NC(C)(C)C)c1
viability at 10 µM (CAKI-1 [1]): 41.9%

Cc1cnc(Nc2ccc(N3CCN(C(=O)c4cccc(F)c4)CC3)cc2)nc1Nc1cccc(S(=O)(=O)NC(C)(C)C)c1
viability at 10 µM (CAKI-1 [1]): 37.3%

Cc1cnc(Nc2ccc(Oc3ccc(Cl)cc3)nc2)nc1Nc1cccc(S(=O)(=O)NC(C)(C)C)c1
viability at 10 µM (CAKI-1 [1]): 87.7%

Cc1cnc(Nc2ccc(N3CCN(S(=O)(=O)c4ccccc4)CC3)cc2)nc1Nc1cccc(S(=O)(=O)NC(C)(C)C)c1
viability at 10 µM (CAKI-1 [1]): 83.8%

COc1cc(Nc2ncc(C)c(Nc3cccc(S(=O)(=O)NC4CCC4)c3)n2)cc(OC)c1OC
viability at 10 µM (CAKI-1 [1]): 33%

Cc1ccccc1NC(=O)N1CCN(c2ccc(Nc3ncc(C)c(Nc4cccc(S(=O)(=O)NC(C)(C)C)c4)n3)cc2)CC1
viability at 10 µM (CAKI-1 [1]): 45%

COc1cc(Nc2ncc(C)c(Nc3ccc(N4CCN(C)CC4)cc3)n2)cc(OC)c1OC
viability at 10 µM (CAKI-1 [1]): 39.9%

Cc1cc(Nc2ncc(Cl)c(Nc3ccccc3S(=O)(=O)C(C)C)n2)c(OC(C)C)cc1C1CCNCC1 [CERITINIB]
IC50 [3]: 13.1 µM

Cc1ccc(Nc2ncc(C)c(Nc3cccc(S(=O)(=O)NC(C)(C)C)c3)n2)cc1Nc1nccc(-c2cccnc2)n1
viability at 10 µM (CAKI-1 [1]): 77%

Cc1ccc(Nc2ncc(C)c(Nc3cccc(S(=O)(=O)NC(C)(C)C)c3)n2)cc1Nc1nc(-c2cccnc2)cs1
viability at 10 µM (CAKI-1 [1]): 43.5%

Cc1cnc(Nc2ccc(N3CCN(C(=O)Nc4ccccc4C(F)(F)F)CC3)cc2)nc1Nc1cccc(S(=O)(=O)NC(C)(C)C)c1
viability at 10 µM (CAKI-1 [1]): 39.7%
